Assay results: patent US9586963B2 (GENFIT, priority 2011, dated 2017)
pEC50: −log10 of the molar value.

Key:
[1] = target: T1, Rev-Erb alpha (Homo sapiens, UniProt P20393); assay: M2H (mammalian two-hybrid) cellular activation assay of Rev-Erb alpha; format: cell-based; conditions: M2H assay, HEK293 cells, Gal4-Rev-Erb alpha / VP16-NCoR, luciferase reporter
T1 sequence (P20393 284-614 limits assumed): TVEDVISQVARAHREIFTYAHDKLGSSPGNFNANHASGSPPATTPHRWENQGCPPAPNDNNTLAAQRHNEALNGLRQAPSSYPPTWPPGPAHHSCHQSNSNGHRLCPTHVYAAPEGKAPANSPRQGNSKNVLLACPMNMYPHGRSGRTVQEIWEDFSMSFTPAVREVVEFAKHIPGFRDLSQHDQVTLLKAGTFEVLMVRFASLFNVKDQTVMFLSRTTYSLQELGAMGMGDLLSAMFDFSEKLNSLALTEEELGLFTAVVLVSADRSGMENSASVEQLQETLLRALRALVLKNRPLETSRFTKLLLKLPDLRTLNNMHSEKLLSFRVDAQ
Outline: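 Six-point dose-response, 18 h, 37 °C, serum-free, in HEK293 cells carrying a Gal4-RE luciferase reporter with Gal4-Rev-Erb alpha or beta plus VP16-NCoR (corepressor interaction readout). EC50 and TOP activation (%) derived from luminescence across four experiments.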

[2] = target: T2, Rev-Erb beta (Homo sapiens, UniProt Q14995); assay: M2H (mammalian two-hybrid) cellular activation assay of Rev-Erb beta; format: cell-based; conditions: HEK293 cells, Gal4-Rev-Erb beta / VP16-NCoR, luciferase reporter
T2 sequence (Q14995 369-579 limits assumed): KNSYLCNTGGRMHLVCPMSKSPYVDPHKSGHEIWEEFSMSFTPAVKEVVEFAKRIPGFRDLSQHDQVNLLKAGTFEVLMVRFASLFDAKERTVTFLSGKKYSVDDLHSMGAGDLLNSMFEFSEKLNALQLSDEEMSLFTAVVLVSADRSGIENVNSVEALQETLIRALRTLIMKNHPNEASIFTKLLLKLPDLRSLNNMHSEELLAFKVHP
Description: In this system, Rev-Erb alpha or Rev-Erb beta is expressed as a fusion to the Gal4 DNA-binding domain and the cofactor NCoR is expressed as a fusion to the activation domain of the Herpes Simplex Virus tegument protein VP16. These fusion proteins were included in plasmids at a concentration of 1 μg/μL. The pBS-SK+ vector was added to the preparation to adjust the DNA quantity to a fixed value for each condition.
The transfection mix (Jet-PEI protocol, Polyplus transfection) comprised: • 3 mL of Jet PEI Mix (180 μL Jet-Pei and NaCl at 150 mM) and • 3 mL of the DNA Mix or of the DNA Mix control (wherein the Gal4-Rev-Erb alpha plasmid was replaced by a pGal4phi plasmid).
DNA Mix comprised 1.2 mL of DNA and 1.8 mL of NaCl at 150 mM with, in a T225 flask: • 90 ng of Gal4-Rev-Erb alpha, or 90 ng of Gal4-Rev-Erb beta, • 4500 ng of VP16-NCoR, • 27000 ng of Gal4-RE and • 13410 ng of pBS-SK+. Cells
HEK293 cells were cultured in DMEM (Invitrogen 41965) comprising 10% FBS, P/S, 1% glutamine, 1% pyruvate (Invitrogen 11360) and 1% amino acids (Invitrogen 11140). Cells were then batch co-transfected with plasmid vectors (described in the table above) using as Jet-PEI as reagent (Polyplus) following the protocol specified below.
The 6 mL-transfection mix was transferred in a T225 flask. HEK293 cells were then added at a concentration of 12 Millions of cells for 54 mL of medium (DMEM comprising 10% FBS and 1% P/S). Cells incubated over-night at 37° C. and under 5% CO2.
This cell-based assay is performed using 384-well Greiner white plates (Reference 781080). After the incubation, cells were rinsed with PBS, trypsinized, centrifuged and resuspended in free-serum DMEM without phenol red (Invitrogen 31053). Cells were counted and adjusted to 0.5 Million per mL and plated at a concentration of 10,000 cells in 20 μL per well. They were incubated a minimum of 4 hours at 37° C. under 5% CO2. Cells were treated with 20 μL of the compound to analyze (concentration of 2× diluted in DMEM without FBS containing a maximum of 1% DMSO) and incubated over-night (18 hours, 37° C. and 5% CO2). Each compound has been tested at 6 different concentrations to depict a dose-effect allowing the measure of biochemical parameters such as EC50 and TOP activation (%).
Cells were incubated 30 minutes with 40 μL/well of Steady Glow (Promega) and luminescence was read with TECAN Genios Pro (100 ms/w). Four experiments were carried out for each compound.
Each compound has been tested at 6 different concentrations to depict a dose-effect allowing the measure of biochemical parameters such as EC50 and TOP activation (%).
The mammalian two-hybrid system (M2H) assay consists herein in studying the ability of compounds according to the invention to activate Rev-Erbalpha in cells and thus modulate the interaction with its corepressor. The interaction of the two proteins is assessed with the help of the Luciferase reporter gene. HEK293 cells were transfected with two gene constructions: Gal4-RE VP16-NCoR and Gal4-Rev-Erbalpha or with Gal4-RE, sVP16-NCoR and Gal4-Rev-Erb beta.
The ability of compounds according to the invention of activating Rev-Erbalpha alpha or Rev-Erb beta was assessed in the described cell-based assay. EC50 and TOP activation (%) were measured.

[3] = tested on: diet induced obese mice; conditions: Solt et al; cited from earlier work
[4] = high clearance and rapid metabolism; cited from earlier work
[5] = tested on: Diet Induced Obesity mice; assay: In vivo evaluation in Diet Induced Obesity mice (high fat diet): glycemia, Hb1Ac; design: species or system C57BI/6J mice; conditions: diet induce obese mice, 45 mpk, once daily by gavage, 28 days
Description: Four week-old male C57BI/6J mice (from Janvier, France) were fed with an high fat diet (D12492, SSNIFF) for up to 10 weeks. All mice were housed 2 per cage under controlled conditions of humidity, lighting and temperature. At the end of the 10 week of diets, mice were randomized according to their body weight gain, body weight, and their non-fasting glycaemia. The treatments with compound of interest were administered once daily, by gavage (10 mL/kg) for 28 consecutive days. For oral administrations, the drugs were suspended in CMC 1%+Tween 80 0.1%.
As previously described animals were assayed for their non fasting glycaemia and biochemical parameters such as Hb1Ac.
At the end of the treatment period, animals were anesthetized with isoflurane and then sacrificed by cervical dislocation. The Student's t-test was used to test for statistical differences between drug and vehicle treatments when a single dose of drug was used.

[6] = target: T1, Rev-Erb alpha; assay: TR-FRET (HTRF) assay of Rev-Erb alpha LBD with NCoR peptide ID1; format: biochemical; conditions: cell-free, Rev-Erb alpha LBD His 20 nM, NCoR ID1 30 nM
Description: Recombinant histidine-tagged Rev-Erb alpha ligand binding domain (LBD; SEQ ID NO: 1) and NCoR peptide ID1 (SEQ ID NO: 2) were tagged with fluorophores. Histidine-tagged Rev-Erb alpha LBD protein was set up in a one to one ratio of 20 nM of His D2 (Cis Bio International 61HSDLB). The NCoR peptide (ID1) was prepared in-house. We used a concentration of 30 nM NCoR and 10 nM Terbium-labeled streptavidin (Cis Bio International 610SATLB).
The buffer for this assay comprised PBS pH 7.2, NaH2P04 at 4 g/L, Na2HP04 at 27 g/L and NaCl at 9 g/l in deionized water. Before using the buffer in the assay, a mixture comprising 1 mM of DTT, 2 mM of CHAPS, 1 mM of EDTA and 0.1% BSA fatty acid free was added to the appropriate amount of buffer. The protein mixture comprising recombinant Rev-Erb alpha LBD His (20 nM), the NCoR ID1 (30 nM) and their respective fluorophores were added to each well of a 384-well plate in a volume 18 μl. The compounds to analyze were diluted in PBS 10% DMSO and was added in a volume of 2 μL in a well. The final mixture volume was 20 μL and the mixture was allowed equilibrate for 2 hours at room temperature. Fluorescence intensity was then counted on the TECAN Genios Pro as a ratio of the fluorescence measured at 665 nm and that measured at 620 nm obtained in the absence of the compound (buffer only) or with the compound. Four experiments were carried out for each compound.
Each compound has been tested at 6 different concentrations to depict a dose-effect enabling the measure of biochemical parameters such as EC50 and TOP activation (%).
The Homogenous Time Resolved Fluorescence (HTRF) assay allows studying the ability of compounds according to the invention to activate Rev-Erb alpha and thus modulate the interaction with its corepressor. The molecular interactions between these bio-molecules are assessed in a cell-free assay by coupling each partner with a fluorescent label and detecting the level of energy transfer. This energy transfer occurs when the distance between the donor (SA Terbium complex) and the acceptor (D2) is small enough.
The ability of compounds according to the invention of activating Rev-Erb alpha was assessed in the described acellular assay. EC50 and TOP activation were measured.

Row | pEC50 [1] | pEC50 [2] | melting point [°C] | SMILES | also measured
1 | > 7.00 | 6.00 to 7.00 | 148 to 149 | CN(C)c1ccc(Oc2ccc3nnc(Cl)n3n2)c(-c2ccccc2)c1 [Cpd.4-46, 3-chloro-6-(5-dimethylamino-biphenyl-2-yloxy)-[1,2,4]triazolo[4,3-b]pyridazine] | –
2 | – | – | – | CCOC(=O)N1CCC(CN(Cc2ccc(Cl)cc2)Cc2ccc([N+](=O)[O-])s2)C1 (centres unmarked) [SR9009] | metabolic parameters [3]: improve the metabolic parameters
3 | 6.00 to 7.00 | 6.00 to 7.00 | 85 to 88 | CCCCNc1ccc(Oc2ccc3nnc(Cl)n3n2)c(-c2ccccc2)c1 [Cpd.4-58, 3-chloro-6-(5-butylamino-biphenyl-2-yloxy)-[1,2,4]triazolo[4,3-b]pyridazine] | –
4 | – | – | – | CCOC(=O)C1Cc2ccccc2CN1C(=O)c1ccc(SC)s1 (centres unmarked) [SR8278] | pharmacokinetic properties [4]: poor pharmacokinetic properties
5 | 6.00 to 7.00 | 6.00 to 7.00 | 199.1 | CC(C)(C)c1ccc(Oc2ccc3nnc(Cl)n3n2)c(-c2ccccc2)c1 [Cpd.4-19, 6-(5-tert-butyl-biphenyl-2-yloxy)-3-chloro-[1,2,4]triazolo[4,3-b]pyridazine] | –
6 | > 7.00 | 6.00 to 7.00 | – | CN(C)c1ccc(-c2ccccc2)c(Oc2ccc3nnc(Cl)n3n2)c1 [Cpd.4-45, 3-chloro-6-(4-N,N-dimethylamino-biphenyl-2-yloxy)-[1,2,4]triazolo[4,3-b]pyridazine] | –
7 | 5.22 to 6.00 | – | – | FC(F)(F)c1ccc(-c2cncnc2)c(Oc2ccc3nnc(Cl)n3n2)c1 [Cpd.4-99, 3-chloro-6-(2-(pyrimidin-5-yl)-5-(trifluoromethyl)phenoxy)-[1,2,4]triazolo[4,3-b]pyridazine] | Hb1Ac levels [5]: significantly reduced; non fasting blood glucose concentration [5]: significantly reduce
8 | 6.00 to 7.00 | 6.00 to 7.00 | 72 to 77 | CCNc1ccc(Oc2ccc3nnc(Cl)n3n2)c(-c2ccccc2)c1 [Cpd.4-54, 3-chloro-6-(5-ethylamino-biphenyl-2-yloxy)-[1,2,4]triazolo[4,3-b]pyridazine] | –
9 | > 7.00 | 6.00 to 7.00 | 147.5 | Cc1cc(Oc2ccc3nnc(Cl)n3n2)c(-c2ccccc2)cc1C [Cpd.4-18, 6-(4,5-dimethyl-biphenyl-2-yloxy)-3-chloro-[1,2,4]triazolo[4,3-b]pyridazine] | –
10 | – | – | – | CCCCCNC(=O)N1CCC(CN(Cc2ccc(Cl)cc2)Cc2ccc([N+](=O)[O-])s2)C1 (centres unmarked) [SR9011] | metabolic parameters [3]: improve the metabolic parameters
11 | 6.00 to 7.00 | – | 180.7 | Fc1ccc(-c2ccccc2)c(Oc2ccc3nnc(Cl)n3n2)c1 [Cpd.4-7, 6-(4-fluoro-biphenyl-2-yloxy)-3-chloro-[1,2,4]triazolo[4,3-b]pyridazine] | pEC50 [6]: > 7.00
12 | 6.00 to 7.00 | – | 144.4 | Fc1ccc(-c2ccccc2Oc2ccc3nnc(Cl)n3n2)cc1 [Cpd.4-10, 6-(4′-fluoro-biphenyl-2-yloxy)-3-chloro-[1,2,4]triazolo[4,3-b]pyridazine] | pEC50 [6]: > 7.00
